Reference: patent US20100216761A1, “NOVEL AZETIDINONES USEFUL AS INHIBITORS OF ELASTASE” (priority 2007, published 2010)
pIC50: −log10 of the molar value. Read-outs that look alike come from different tables or passages of the source.

How the values were obtained:
Rat pharmacokinetics = assay type: in vivo, Sprague-Dawley rats; details: for Vd / clearance / half-life / AUCN, i.v. dosing @ 1 mpk: iv, 1 mg/kg; for AUCN, p.o. dosing @ 2 mpk: po, 2 mg/kg
Protocol: As exemplified in Table 7, the in vivo pharmacokinetic profiles for Examples 1 and 3 and the comparator Compound #290 were determined in the rat at the standard screening doses of 1 mpk i.v. and 2 mpk p.o. (Note 10).
Compounds were formulated as their mono-L-malic acid salts at 1 mg/mL in PEG-200:water 70:30 (v:v) and administered to Sprague-Dawley rats (n=2 for i.v. and n=3 for p.o. arms) at a dose of 1 mg/kg i.v. or 2 mgk p.o. (free base equivalent). Blood samples were taken at 0.03, 0.08, 0.25, 0.50, 1, 2, 4, 6, 8 and 24 hours for the i.v. arm and at 0.25, 0.50, 1, 2, 4, 6, 8 and 24 hours for the p.o. arm. The plasma concentrations of test compound at each time point were determined by protein precipitation with acetonitrile followed by liquid chromatography—tandem mass spectrometry versus a standard curve. The PK parameters were calculated using validated techniques known in the literature (see Stedman's Medical Dictionary, 23rd ed.).

CYP-P450 2C9 = target: T1, CYP-P450 2C9 (Homo sapiens, UniProt P11712); experiment: CYP-P450 reversible inhibition, 2C9; assay type: in vitro ADME; details: human liver microsomes or recombinant P450 microsomes; fluorescent probe
T1 construct: host or cells: human liver microsomes or recombinant P450 microsomes
Protocol: This assay measured the reversible inhibition of the test compounds against three cytochrome P450 isozymes (CYP-P450 3A4, 2C9 and 2D6) in an automated screening formate. […] Cumene hydroperoxide, NADPH or NADPH regenerating systems can be used as electron donors for the P450 catalytic cycle. Control incubations containing no inhibitor or no fluorescent probe were performed to evaluate the 100% and 0% activities, respectively. The activity of P450 enzyme was evaluated in the presence of 0.137, 0.273, 0.547, 1.094, 2.188, 4.375, 8.750, 17.5, 35.0 and 70.0 μM concentrations of the test compounds. Inhibition curves were generated and IC50 values were calculated for each tested compound using standard techniques.

[1] = target: T2, Human Leukocyte Elastase (HLE) (Homo sapiens, UniProt P08246); experiment: HLE time-dependent inactivation assay, purified elastase; assay type: biochemical; details: purified elastase 3 nM; inhibitor 26.5 nM; substrate 1 mM
T2 construct: The PMN lysates were prepared by isolating human neutrophils from whole blood; from tissue; host or cells: human neutrophils (PMN) isolated from whole blood, lysed by sonication in PBS
T2 sequence (P08246 30-267): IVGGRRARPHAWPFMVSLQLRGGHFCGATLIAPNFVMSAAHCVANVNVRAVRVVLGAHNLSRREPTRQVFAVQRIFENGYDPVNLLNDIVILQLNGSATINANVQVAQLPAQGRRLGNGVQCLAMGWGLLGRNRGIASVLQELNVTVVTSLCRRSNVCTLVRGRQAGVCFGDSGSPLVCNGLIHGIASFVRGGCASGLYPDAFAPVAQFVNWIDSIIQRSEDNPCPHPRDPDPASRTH
Protocol: As exemplified in Table 1, the Examples 1-6 of this application were determined to be potent, mechanism-based inactivators of Human Leukocyte Elastase (HLE) in two different in vitro time-dependent incubation assays. The two assays are described at the end of this Biological Data Section in Note 1. See the literature references in Note 2 for a discussion of the mechanism for this type of beta-lactam inactivation of HLE. Two sources of enzyme were used; either purified elastase or crude extracts of human polymorphonuclear leukocytes (PMN) containing elastase activity. […] For the compound of Example 1, the results were 638,000 M^−1 sec^−1 (average of n=3) and 809,000 M^−1 sec^−1 (n=4), respectively, and for Example 3, 804,000 M^−1 sec^−1 (average of n=4) and 952,000 M^−1 sec^−1 (n=5). […] Note that in this assay, head-to-head comparisons are particularly valuable.
Note 1: Enzyme Assays for the Inhibition of Human Polymorphonuclear Leukocyte Elastase Via Hydrolysis of N-Methyoxysuccinyl-alanyl-alanyl-prolylalanine-p-nitroanilide Reagent.
Prepare substrate by first dissolving in DMSO to 30 mg/ml (50 mM). Further dilute the substrate to 10 mM and add 25 μl to a final volume of 250 μl for a final concentration of 1 mM in the assay.
Prepare the enzyme in TES Buffer (0.045M TES (N-tris[hydroxymethyl]methyl-2-mino-ethanesulfonic acid), 0.45 M NaCl, pH 7.5.). Two sources of enzyme were used; either crude extracts of human polymorphonuclear leukocytes (PMN) containing elastase activity or purified elastase. The PMN lysates were prepared by isolating human neutrophils from whole blood after dextran sedimentation, ficoll density separation and red blood cell lysis. The neutrophils were lysed in PBS with sonciation and the concentration of active enzyme was determined by utilizing a standard curve of purified enzyme. For the purified elastase, the enzyme was resuspended at 10 mg/ml (˜340 μM) in 0.02M NaOAc, 50% glycerol. For both the PMN lysate and purified enzyme, a further dilution of enzyme was made to 30 nM and 25 μl was added to a final volume of 250 μl. The final concentration of enzyme in the assay was 3 nM.
The inhibitors to be tested were dissolved in DMSO at 10 mM. Directly before use, the inhibitors were further diluted into TES Buffer to 265 nM and […] was added to a final volume of 250 μl. The final concentration of inhibitor in the assay was 26.5 nM.
In a 96-well plate (flat bottom, polystyrene) 175 μl TES Buffer, 25 μl substrate, 25 μl inhibitor and 25 μl enzyme were added. After thoroughly mixing, the plate was then read in a spectrophotometer at 410 nm for 30 minutes counting every 10 seconds. Results were expressed as Kinact/Ki which is the second order rate constant in per mole per second for inactivation of the enzyme.

T1 sequence (P11712 whole entry): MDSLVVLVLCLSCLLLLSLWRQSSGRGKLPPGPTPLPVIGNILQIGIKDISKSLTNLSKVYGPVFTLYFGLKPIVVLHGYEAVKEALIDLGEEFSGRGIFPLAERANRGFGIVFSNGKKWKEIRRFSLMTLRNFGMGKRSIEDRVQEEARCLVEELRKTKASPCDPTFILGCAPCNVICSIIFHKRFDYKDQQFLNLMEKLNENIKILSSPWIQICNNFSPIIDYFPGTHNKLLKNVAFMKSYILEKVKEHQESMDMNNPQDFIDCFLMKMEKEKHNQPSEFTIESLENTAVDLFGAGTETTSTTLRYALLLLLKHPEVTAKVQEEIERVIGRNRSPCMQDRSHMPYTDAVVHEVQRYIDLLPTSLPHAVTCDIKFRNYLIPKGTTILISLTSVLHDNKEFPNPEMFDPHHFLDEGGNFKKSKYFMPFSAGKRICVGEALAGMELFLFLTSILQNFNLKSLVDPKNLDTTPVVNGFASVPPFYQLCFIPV

| SMILES | F (Rat pharmacokinetics; Sprague-Dawley, in vivo) [%] | Vd (Rat pharmacokinetics; Sprague-Dawley, in vivo) [L/kg] | clearance (Rat pharmacokinetics; Sprague-Dawley, in vivo) [mL/min/kg] | half-life (Rat pharmacokinetics; Sprague-Dawley, in vivo) [h] | AUCN, i.v. dosing @ 1 mpk (Rat pharmacokinetics; in vivo) [μMhrkg/mg] | AUCN, p.o. dosing @ 2 mpk (Rat pharmacokinetics; in vivo) [μMhrkg/mg] | pIC50 (CYP-P450 2C9) | kinact/KI [1] [M⁻¹ s⁻¹] | Vd (Rat pharmacokinetics; Sprague-Dawley, in vivo, i.v. 1 mpk, mono-L-malic acid salts, read-out: VDss) [L/kg] | half-life (Rat pharmacokinetics; Sprague-Dawley, in vivo, i.v. 1 mpk, mono-L-malic acid salts, read-out: t1/2 (converted)) [h] | F (Rat pharmacokinetics; oral bioavailability, p.o. 2 mpk vs i.v. 1 mpk) [%] |
| --- | --- | --- | --- | --- | --- | --- | --- | --- | --- | --- | --- |
| CCC[C@@H](NC(=O)N1C(=O)C(CC)(CC)[C@@H]1Oc1ccc(C(=O)N(CC)CCN(C)C)cc1)c1ccc(OC(F)(F)F)cc1 [Example 1, 2-(S)-[4-(((2-(Dimethylamino)ethyl)ethylamino)carbonyl)phenoxy]-3,3-diethyl-N-[1-(R)-(4-(trifluoromethoxy)phenyl)butyl]-4-oxo-1-azetidinecarboxamide] | 25 | 11 | 42 | 3.1 | 0.65 | 0.16 | 4.77 | 638000 | – | – | – |
| CCC[C@@H](NC(=O)N1C(=O)C(CC)(CC)[C@@H]1Oc1ccc(C(=O)N(C)CCN(C)C)cc1)c1ccc(OC)cc1 [Compound #290, reference compound] | 29 | 14.5 | 114 | 2 | 0.28 | 0.081 | 4.60 | 523000 | – | – | – |
| CCC[C@@H](NC(=O)N1C(=O)C(CC)(CC)[C@@H]1Oc1ccc(C(=O)N(CC)CCN(C)C)cc1)c1ccc(C(F)(F)F)cc1 [Example 3, 2-(S)-[4-(((2-(Dimethylamino)ethyl)ethylamino)carbonyl)phenoxy]-3,3-diethyl-N-[1-(R)-(4-(trifluoromethyl)phenyl)butyl]-4-oxo-1-azetidinecarboxamide] | 28 | – | 113 | – | 0.24 | 0.069 | 5.09 | 804000 | 29 | 3.7 | 28 |
